These results are taken from the Kinase Knowledgebase extract (Sharma et al. 2016).

Sequence of MAPK14 (human) (Q16539 whole entry, looked up): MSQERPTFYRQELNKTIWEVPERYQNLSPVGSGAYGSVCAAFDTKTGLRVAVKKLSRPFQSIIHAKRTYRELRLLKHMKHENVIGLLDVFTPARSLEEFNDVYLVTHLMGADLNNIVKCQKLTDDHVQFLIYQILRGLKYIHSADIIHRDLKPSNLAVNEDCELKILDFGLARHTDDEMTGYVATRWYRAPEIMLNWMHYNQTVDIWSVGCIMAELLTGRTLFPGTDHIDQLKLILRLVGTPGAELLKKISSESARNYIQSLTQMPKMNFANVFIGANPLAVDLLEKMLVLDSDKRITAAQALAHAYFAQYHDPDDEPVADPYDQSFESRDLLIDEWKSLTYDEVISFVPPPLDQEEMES

The assay has as its target MAPK14 (human) (UniProt Q16539). As to the kind of experiment: Inhibition of MAPK14 by Human Whole Blood Assay. The settings on record: blood cells.
By IC50 is commonly meant the concentration that gives 50% inhibition. Lower therefore signals inhibition by little substance. In turn, `O=C(c1ccc2ccccc2c1)N(Cc1ccc(F)cc1)c1ccnc(NCCN2CCOCC2)c1` displayed an IC50 of at most 1000 nM.
Turning to `Nc1cc(N(Cc2ccc(F)cc2)C(=O)c2ccc3ccccc3c2)ccn1`, the IC50 was at most 1000 nM.
In turn, `COCC(C)Nc1nccc(N(CCCCN)C(=O)c2ccc3c(c2)CCO3)n1` (stereo not given) came in with an IC50 below 1000 nM.
Turning to `O=C(c1ccc2ccccc2c1)N(Cc1ccc(F)cc1)c1ccnc(N[C@H]2CCCc3ccccc32)c1`, the IC50 is at most 1000 nM.
Under `C[C@H](Nc1cc(N(Cc2ccc(F)cc2)C(=O)c2ccccc2)ccn1)c1ccccc1` stands at most 1000 nM; under `CC(Nc1cc(N(Cc2ccc(F)cc2)C(=O)c2ccc3ccccc3c2)ccn1)c1ccc(Cl)cc1` (stereo not given), at most 1000 nM; under `COC(=O)c1ccc(CNc2cc(N(Cc3ccc(F)cc3)C(=O)c3ccc4ccccc4c3)ccn2)cc1`, at most 1000 nM.
As to `O=C(c1ccc2c(c1)CCO2)N(CC1CCNCC1)c1ccnc(NC2CCC[C@@H]2O)n1` (stereo not given in full), the IC50 was below 1000 nM.
Under `C[C@H](Nc1nccc(N(Cc2ccc(F)cc2)C(=O)c2ccc3ccccc3c2)n1)c1ccccc1` stands at most 1000 nM.
The figure for `CCCN(C(=O)c1ccc2ccccc2c1)c1ccnc(N[C@@H](C)c2ccccc2)n1` is at most 1000 nM.
